This note sets out measurements from ChEMBL document CHEMBL1806432, “Cytotoxic diterpenoid quinonemethides from the roots of Pygmacopremna herbacea” (Bioorg Med Chem Lett, 2011).

Each structure is given as a SMILES string. In brackets after ≈: the same amount, converted by molar mass.

Common to all, as to type: functional, cell-based
One assay concerns A549. The assay can be described thus: Cytotoxicity against human A549 cells after 48 hrs by MTT assay. The following applies: A549, 48 h.
The test system of another assay is PC-3. The assay can be described thus: Cytotoxicity against human PC3 cells after 48 hrs by MTT assay. Conditions: PC-3, 48 h. On the technique in general: Formazan colour is commonly taken as a measure of viable cells.
A further assay relates to HeLa. The assay can be described thus: Cytotoxicity against human HeLa cells after 48 hrs by MTT assay.
The next assay relates to HepG2. The assay can be described thus: Cytotoxicity against human HepG2 cells after 48 hrs by MTT assay. The following applies: HepG2, 48 h.
Another assay deals with MCF7. The assay can be described thus: Cytotoxicity against human MCF7 cells after 48 hrs by MTT assay. Conditions: MCF7, 48 h.

With `COc1cccc2c1C(=O)c1c(O)c3c(c(O)c1C2=O)C[C@@](O)(C(=O)CO)C[C@@H]3O[C@H]1C[C@H](N)[C@H](O)[C@H](C)O1` [DOXORUBICIN], the IC50 in the assay with A549 turned out to be 0.51 µg/mL (≈ 0.938 µM); in the assay on PC-3, 2.3 µg/mL (≈ 4.23 µM); in the assay on HeLa it was 0.24 µg/mL (≈ 0.442 µM); in the assay on HepG2 it was 1.6 µg/mL (≈ 2.94 µM).

Regarding `CC(C)C1=CC2=CC=C3C(C)(C)COC(=O)[C@@]3(C)CC2=C(O)C1=O` [NEOBHARANGIN], the IC50 in the assay on A549 was determined as 2.61 µg/mL (≈ 7.95 µM); in the assay on PC-3, 48.6 µg/mL (≈ 148 µM); in the assay with HeLa, 104 µg/mL (≈ 318 µM); in the assay on MCF7 it was 0.39 µg/mL (≈ 1.19 µM); in the assay on HepG2, 13 µg/mL (≈ 39.6 µM).

In the case of `CC(C)C1=CC2=CC=C3C(C)(C)CC(=O)O[C@@]3(C)CC2=C(O)C1=O` [BHARANGIN], the IC50 in the assay on A549 came out at 2.03 µg/mL (≈ 6.18 µM); in the assay on PC-3, 2.95 µg/mL (≈ 8.98 µM); with HeLa, 14.1 µg/mL (≈ 42.9 µM); with MCF7, 0.006 µg/mL (≈ 0.0183 µM); in the assay with HepG2 it was 14.3 µg/mL (≈ 43.5 µM).

As for `CC(C)C1=CC2=CC=C3C(C)(C)[C@@H](O)C(=O)C[C@]3(C)C2=C(O)C1=O` [ISOBHARANGIN], the IC50 in the assay with A549 was 24.1 µg/mL (≈ 73.4 µM); in the assay on PC-3, 62.2 µg/mL (≈ 189 µM); in the assay with HeLa, 103 µg/mL (≈ 315 µM); with MCF7 it was 28.2 µg/mL (≈ 85.9 µM); in the assay on HepG2, 6.29 µg/mL (≈ 19.2 µM).

Regarding `CC(C)C1=CC2=CC=C3C(C)(C)CC(=O)C[C@@]3(C)C2=C(O)C1=O`, the IC50 with A549 was 17.6 µg/mL (≈ 56.3 µM); with PC-3, 1.7 µg/mL (≈ 5.44 µM); in the assay with HeLa it was 15.6 µg/mL (≈ 49.9 µM); in the assay on MCF7, 27.6 µg/mL (≈ 88.3 µM); in the assay on HepG2 it was 38.2 µg/mL (≈ 122 µM).

Broadly, the IC50 is the concentration needed to halve the response being measured. High values mean lower potency, low ones higher potency.
